Drawing on patent US6949566B2, “Thiazole and oxazole derivatives” (Shionogi & Co. Ltd., priority 2000, dated 2005), this text covers IC50 and melting point for two compounds.

The target of one series is T1, MMP-8 (Homo sapiens, UniProt P22894).
T1 construct: catalytic domain (^99Phe˜^262Gly) was amplified with PCR; His-tag; enterokinase digestion-site; made in house; host or cells: Escherichia coli
Kind of series: Assay for inhibitory activities on MMPs (fluorogenic peptide substrate), MMP-8. The note with it: catalytic domain 99Phe-262Gly; substrate MOCAc-Pro-Leu-Gly-Leu-A2Pr(DNP)-Ala-Arg-NH2. Format: biochemical.

The target in another series is T2, MMP-12 (Homo sapiens, UniProt P39900).
T2 construct: catalytic domain(^100Phe˜^263Gly) was amplified with RT-PCR; His-tag; enterokinase digestion-site; made in house; host or cells: Escherichia coli
T2 sequence (P39900 100-263): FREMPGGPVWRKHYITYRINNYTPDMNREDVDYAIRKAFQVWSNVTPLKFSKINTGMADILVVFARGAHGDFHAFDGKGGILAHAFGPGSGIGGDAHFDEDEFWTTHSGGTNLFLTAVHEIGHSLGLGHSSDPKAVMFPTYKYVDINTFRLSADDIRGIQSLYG
Put plainly: Assay for inhibitory activities on MMPs (fluorogenic peptide substrate), MMP-12. The series is classed as biochemical. The note with it: catalytic domain 100Phe-263Gly; substrate MOCAc-Pro-Leu-Gly-Leu-A2Pr(DNP)-Ala-Arg-NH2. The method, boiled down: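 Human MMP-12 catalytic domain (Phe100–Gly263), His-tagged, E. coli-expressed and refolded from urea. Continuous fluorogenic assay with MOCAc-Pro-Leu-Gly-Leu-A2Pr(DNP)-Ala-Arg-NH2; % inhibition from fluorescence of enzyme/inhibitor, inhibitor-only, enzyme-only and substrate-only reactions, giving IC50.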

The target in a further series is T3, MMP-9 (Homo sapiens, UniProt P14780).
T3 construct: endogenous in cells; host or cells: HT1080 human fibrosarcoma cells, TPA-stimulated; enzyme purified from conditioned medium
T3 sequence (P14780 107-707 limits assumed): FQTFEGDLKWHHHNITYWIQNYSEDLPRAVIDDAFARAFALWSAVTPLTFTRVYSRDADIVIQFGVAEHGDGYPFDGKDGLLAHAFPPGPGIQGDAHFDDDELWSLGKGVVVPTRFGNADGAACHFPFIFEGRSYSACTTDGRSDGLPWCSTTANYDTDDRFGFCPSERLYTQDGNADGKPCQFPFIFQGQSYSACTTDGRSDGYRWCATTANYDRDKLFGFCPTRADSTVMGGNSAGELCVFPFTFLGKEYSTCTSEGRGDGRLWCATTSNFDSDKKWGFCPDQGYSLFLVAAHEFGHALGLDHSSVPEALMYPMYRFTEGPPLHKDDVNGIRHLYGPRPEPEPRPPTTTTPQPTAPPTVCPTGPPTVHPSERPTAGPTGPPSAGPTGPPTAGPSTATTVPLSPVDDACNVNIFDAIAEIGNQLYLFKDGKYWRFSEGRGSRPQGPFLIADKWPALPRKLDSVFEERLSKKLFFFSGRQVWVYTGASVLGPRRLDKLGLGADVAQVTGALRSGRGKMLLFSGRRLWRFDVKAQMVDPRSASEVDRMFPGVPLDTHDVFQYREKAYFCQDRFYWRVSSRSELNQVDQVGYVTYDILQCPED
Kind of series: Assay for inhibitory activities on MMPs (fluorogenic peptide substrate), MMP-9. The series is classed as biochemical. The settings on record: MMP-9 from HT1080 cells, activated by TPCK-Trypsin; substrate MOCAc-Pro-Leu-Gly-Leu-A2Pr(DNP)-Ala-Arg-NH2. The method, boiled down:
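ProMMP-9 from TPA-stimulated (50 ng/ml) HT1080 fibrosarcoma conditioned medium, chromatographically purified free of TIMPs, then activated with TPCK-trypsin. Activity read fluorometrically on MOCAc-Pro-Leu-Gly-Leu-A2Pr(DNP)-Ala-Arg-NH2; % inhibition = {1−(A−B)/(C−D)}×100 from reactions with/without enzyme and inhibitor, IC50 as 50% inhibiting concentration.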

A further series has as its target T4, MMP-13 (Homo sapiens, UniProt P45452).
T4 construct: catalytic domain (^104Tyr˜^267Gly) was amplified with RT-PCR; His-tag; enterokinase digestion-site; made in house; host or cells: Escherichia coli
Put plainly: Assay for inhibitory activities on MMPs (fluorogenic peptide substrate), MMP-13. Format: biochemical. The settings on record: catalytic domain 104Tyr-267Gly; substrate MOCAc-Pro-Leu-Gly-Leu-A2Pr(DNP)-Ala-Arg-NH2. The method, boiled down: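 Catalytic domain (Tyr104–Gly267) of human MMP-13, His-tagged, expressed in E. coli, refolded from urea and activated. Fluorogenic substrate MOCAc-Pro-Leu-Gly-Leu-A2Pr(DNP)-Ala-Arg-NH2. % inhibition from fluorescence with blanks lacking enzyme and/or inhibitor; IC50 is the concentration giving 50% inhibition.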

The next series addresses T5, MMP-2 (Homo sapiens, UniProt P08253).
T5 construct: purchased Calbiochem-Novabiochem International, Inc
T5 sequence (P08253 110-660): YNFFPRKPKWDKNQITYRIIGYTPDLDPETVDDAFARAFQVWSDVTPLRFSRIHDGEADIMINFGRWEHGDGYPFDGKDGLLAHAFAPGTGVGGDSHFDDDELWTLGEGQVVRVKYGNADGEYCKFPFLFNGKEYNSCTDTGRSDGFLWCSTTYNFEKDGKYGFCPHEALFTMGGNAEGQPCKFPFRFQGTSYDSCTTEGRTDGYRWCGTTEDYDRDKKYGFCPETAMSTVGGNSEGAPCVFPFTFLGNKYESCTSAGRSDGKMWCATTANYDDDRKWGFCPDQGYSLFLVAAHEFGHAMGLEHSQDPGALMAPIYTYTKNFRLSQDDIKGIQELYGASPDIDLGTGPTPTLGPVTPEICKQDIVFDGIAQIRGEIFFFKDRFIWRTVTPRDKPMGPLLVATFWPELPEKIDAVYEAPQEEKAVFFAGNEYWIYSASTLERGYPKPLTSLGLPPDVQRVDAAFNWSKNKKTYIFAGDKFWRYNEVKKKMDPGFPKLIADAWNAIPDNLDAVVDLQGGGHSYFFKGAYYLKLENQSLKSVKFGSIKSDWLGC
Put plainly: Assay for inhibitory activities on MMPs (fluorogenic peptide substrate), MMP-2. The series is classed as biochemical. The note with it: purchased MMP-2; substrate MOCAc-Pro-Leu-Gly-Leu-A2Pr(DNP)-Ala-Arg-NH2.

T1 sequence (P22894 99-262): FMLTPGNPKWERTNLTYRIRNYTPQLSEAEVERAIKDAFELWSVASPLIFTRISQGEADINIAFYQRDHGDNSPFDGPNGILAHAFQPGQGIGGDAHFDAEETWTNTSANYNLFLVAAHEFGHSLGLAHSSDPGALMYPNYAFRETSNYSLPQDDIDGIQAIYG

Take `COc1ccc(-c2cnc(-c3ccc(S(=O)(=O)N[C@H](Cc4ccccc4)C(=O)O)cc3)s2)cc1` [Compound B-1]: the melting point (in general, the temperature, or range, at which the solid turns liquid) fell in the range of 222 to 223 °C. Also, the midpoint of inhibition on MMP-8, the IC50, lay at 28.2 nM. For the same compound, the midpoint of inhibition at MMP-12, the IC50, lay at 3.55 nM. At MMP-9, the 50% inhibitory concentration (IC50) (usually the midpoint of a concentration-inhibition curve) was found to be 43.8 nM. The compound also yielded a half-inhibitory concentration (IC50) at MMP-13 of 2.96 nM. The compound also registered an IC50 at MMP-2 of 1.29 nM.

`O=C(O)[C@@H](Cc1ccccc1)NS(=O)(=O)c1ccc(-c2ncc(-c3ccc4ccccc4c3)o2)cc1` [Compound A-1]: the melting point lay in the range of 243 to 245 °C. This compound displayed an IC50 on MMP-8 of 230 nM. Also, it took 1.88 nM to reach half-maximal inhibition on MMP-12 (IC50). The IC50 at MMP-9 came to 212 nM. In addition, the IC50 at MMP-13 stood at 15 nM. At MMP-2, this compound returned an IC50 of 9.31 nM.
